# In patent US9328138B2 (priority 2011, dated 2016):
# Counter-ions that a name gives are not always drawn.
# Columns and labels:
# [1] = molecular target: T1, HCV genotype 1b (BK) NS3 modified enzyme with a R155K mutation (Hepatitis C virus genotype 1b, UniProt P26663, R1181K); assay: HCV NS3 protease time-resolved fluorescence (TRF) assay, genotype 1b R155K; type: biochemical; details: Ki 1b R155K
# T1 construct: HCV genotype 1b (BK) NS3 modified enzyme
# Procedure, shortened: (§1)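 IC50 values derive from 4-parameter fitting of TRF signal after a 6 h room-temperature cleavage of 25 nM peptide substrate by NS3/NS4A that had been pre-incubated 10 min with compound.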
# [2] = molecular target: HCV NS3 protease genotype 3a (3A-1) (Hepatitis C virus genotype 3a, UniProt Q81258); assay: HCV NS3 protease time-resolved fluorescence (TRF) assay, genotype 3a; type: biochemical; details: Ki 3a
# Procedure, shortened: as §1
# [3] = genotype 1b (BK) NS3 R155K, single value
# [4] = first of two values printed in the cell (not explained)
# [5] = second of two values printed in the cell (not explained)
Structure (SMILES),"Ki [1, 3] [nM]",Ki [2] [nM],"Ki [1, 4] [nM]","Ki [1, 5] [nM]"
"C=C[C@@H]1C[C@]1(NC(=O)[C@@H]1C[C@@H]2CN1C(=O)[C@H](C(C)(C)C)NC(=O)O[C@@H]1CCC[C@H]1CC/C=C/Cc1c(nc3ccccc3c1OCCCN1CCCCC1)O2)C(=O)NS(=O)(=O)C1CC1 [Example 45, (3aR,7S,10S,12R,21E,24aS)-7-tert-butyl-N-{(1R,2S)-1-[(cyclopropylsulfonyl)carbamoyl]-2-ethenylcyclopropyl}-5,8-dioxo-19-[3-(piperidin-1-yl)propoxy]-1,2,3,3a,5,6,7,8,11, 12,20,23,24,24a-tetradecahydro-10H-9,12-methanocyclopenta[18,19][1,10,3,6]dioxa diazacyclononadecino[11,12-b]quinoline-10-carboxamide]",0.1,0.5,–,–
"C=C[C@@H]1CC1(NC(=O)[C@@H]1C[C@@H]2CN1C(=O)[C@H](C(C)(C)C)NC(=O)O[C@@H]1C[C@H]1CCCCCc1c(nc3ccccc3c1OC1C3COCC1CN(CCOC)C3)O2)C(=O)NS(=O)(=O)C1(C)CC1 (stereo partly drawn) [Example 257, 9-{[(1aR,5S,8S,10R,22aR)-5-tert-butyl-8-{[(1R,2S)-2-ethenyl-1-{[1-methylcyclopropyl)sulfonyl]carbamoyl}cyclopropyl]carbamoyl}-3,6-dioxo-1,1a,3,4,5,6,9,10,18,19,20,21,22,22a-tetradecahydro-8H-7,10-methanocyclopropa[18,19][1,10,3,6]dioxadiazacyclononadecino[11,12-b]quinolin-17-yl]oxy}-7-(2-methoxyethyl)-3-oxa-7-azoniabicyclo[3.3.1]nonane formate]",–,3.9,0.032,0.23
"C=C[C@@H]1C[C@]1(NC(=O)[C@@H]1C[C@@H]2CN1C(=O)[C@H](C(C)(C)C)NC(=O)O[C@@H]1C[C@H]1CCCCCc1c(nc3ccccc3c1OCCCN1CC(C#N)C1)O2)C(=O)NS(=O)(=O)C1(C)CC1 [Example 184, (1aR,5S,8S,10R,22aR)-5-tert-butyl-17-[3-(3-cyanoazetidin-1-yl)propoxy]-N-[(1R,2S)-2-ethenyl-1-{[(1-methylcyclopropyl)sulfonyl]carbamoyl}cyclopropyl]-3,6-dioxo-1,1a,3,4,5,6,9,10, 18,19,20,21,22,22a-tetradecahydro-8H-7,10-methanocyclopropa[18,19][1,10,3,6] dioxadiazacyclononadecino[11,12-b] quinoline-8-carboxamide]",0.057,1.1,–,–
"C=C[C@@H]1C[C@]1(NC(=O)[C@@H]1C[C@@H]2CN1C(=O)[C@H](C(C)(C)C)NC(=O)O[C@@H]1CCC[C@H]1CC/C=C\Cc1c(nc3ccccc3c1OC)O2)C(=O)NS(=O)(=O)C1CC1 [Example 7, (3aR,7S,10S,12R,21Z,24aS)-7-tert-butyl-N-{(1R,2S)-1-[(cyclopropylsulfonyl)carbamoyl]-2-ethenylcyclopropyl}-19-methoxy-5,8-dioxo-1,2,3,3a,5,6,7,8,11,12,20,23,24,24a-tetradecahydro-10H-9,12-methanocyclopenta[18,19][1,10,3,6] dioxadiazacyclononadecino[11,12-b]quinoline-10-carboxamide]",0.76,17,–,–
"C=C[C@@H]1C[C@]1(NC(=O)[C@@H]1C[C@@H]2CN1C(=O)[C@H](C1(C)CCCCC1)NC(=O)O[C@@H]1C[C@H]1CCCCCc1c(nc3ccccc3c1OC1CCN(C)CC1)O2)C(=O)NS(=O)(=O)C1(C)CC1 [Example 232, (1aR,5S,8S,10R,22aR)—N-[(1R,2S)-2-ethenyl-1-{[(1-methylcyclopropyl)sulfonyl]carbamoyl}cyclopropyl]-5-(1-methylcyclohexyl)-17-[(1-methylpiperidin-4-yl)oxy]-3,6-dioxo-1,1a,3,4,5,6,9,10,18,19,20,21,22,22a-tetradecahydro-8H-7,10-methanocyclopropa[18,19][1,10,3,6]dioxadiazacyclononadecino[11,12-b]quinoline-8-carboxamide]",–,0.275,0.02,0.04
